# Reference: US9399666B2, “Inhibiting interaction between the HIF-1ALPHA and p300/CBP with hydrogen bond surrogate-based helices” (New York University, priority 2008, dated 2016)
# Peptide text beside a SMILES is read from it.
# B1: peptide 23 (AcTSYDCEVNA-NH2) (peptide)
# peptide: Ac-TSYDCEVNA-NH2
# notes: also called linear peptide 23; unconstrained peptide 23
# B2: peptide 24 (AcTAYDCEVNA-NH2) (peptide)
# peptide: Ac-TAYDCEVNA-NH2
# notes: Unconstrained analog of HBS peptide 20 (alanine in place of serine-797); also called linear peptide 24; unconstrained peptide 24
# B3: peptide 25 (AcGTAADCEYNAR-NH2) (peptide)
# peptide: Ac-GTAADCEYNAR-NH2
# notes: Unconstrained analog of HBS helix 22; also called linear control peptide 25; control peptide 25
# Columns and labels:
# circular dichroism = conditions: 10 mM phosphate buffered saline (par. 0128, each peptide; pH given only for 22 and 25, Fig 6B), pH 7.4, ns °C
# MDA-MB-231-HRE-Luc cells = format: cell-based
# Method: MDA-MB-231-HRE-Luc cells were maintained in high glucose Dulbecco's Modified Eagle's Medium (“DMEM”) supplemented with 10% fetal bovine serum and 0.4 g/L Geneticin (G418 sulfate, RPI Corporation). Cells were plated in 24-well dishes (BD Falcon) at a density of […] using 1 mL of a 6.5×10^4 cell/mL suspension. […] Cells were incubated for 6 hours at 37° C. in a humidified atmosphere with 5% CO2. Hypoxia was induced by adding desferoxamine mesylate (DFO, Sigma) to a final concentration of 300 μM, and cells were incubated for an additional 18 hours. Whole cell lysates were isolated by washing the cells twice with ice cold PBS and then adding 150 μL of Cell Culture Lysis Reagent (“CCLR,” Promega). Lysate was collected, centrifuged at 13,000 rpm at 4° C., aliquoted, and stored at −80° C. Luciferase assays were conducted according to the manufacturer's instructions (Promega) using a Turner TD-20e Luminometer. Relative light intensity measurements were normalized by performing a Bradford assay to determine the protein content of the lysate used in the luciferase assay. Briefly, 50 μL of cell lysate/luciferase assay reagent mix was added to 200 μL of Bradford reagent and 750 μL of Millipore water in a 1.5 mL cuvette. Protein standards were created in the range of 1 μg/mL to 10 μg/mL with the appropriate amount of a 1 mg/mL BSA solution. Absorbance was measured at 595 nm using a DU-800 spectrophotometer. The experiments were carried out in triplicate with the error bars calculated as standard error of the mean.
# [1] = Percent helicity by circular dichroism spectroscopy; format: physicochemical
# Text: Helix αA of HIF-1α C-TAD, shown in FIG. 1A and FIG. 1C, is critical for the interaction between the CH1 domain and HIF-1α, because mutation of its residues or hydroxylation of Asn803 is known to disrupt this complex and inhibit HIF-1α mediated transcription (Freedman et al., “Structural Basis for Recruitment of CBP/p300 by Hypoxia-inducible Factor-1α,” Proc. Nat'l Acad. Sci. USA 99:5367-72 (2002); Dames et al., “Structural Basis for Hif-1α/CBP Recognition in the Cellular Hypoxic Response,” Proc. Nat'1 Acad. Sci. USA 99:5271-6 (2002). Development of HBS helices as potential inhibitors of VEGF transcription was begun by mimicking the aA helix region of HIF-1. This helix consists of eight residues, […] (SEQ ID NO: 111), and features three residues, Asp-Cys-Glu, critical for binding with p300/CBP. Several linear peptides and their HBS α-helix analogs were designed to gauge the potential of these molecules to inhibit VEGF transcription in cell culture. Each unconstrained peptide and HBS helix was synthesized using the procedures described in (Dimartino et al., “Solid-phase Synthesis of Hydrogen-bond Surrogate-derived α-Helices,” Org. Lett. 7:2389-92 (2005); Chapman & Arora, “Optimized Synthesis of Hydrogen-bond Surrogate Helices: Surprising Effects of Microwave Heating on the Activity of Grubbs Catalysts,” Org. Lett. 8:5825-8 (2006)). The percent helicity of each peptide was determined using circular dichroism spectroscopy in 10 mM phosphate buffered saline as described in (Wang et al., “Evaluation of Biologically Relevant Short α-Helices Stabilized by a Main-chain Hydrogen-bond Surrogate,” J. Am. Chem. Soc. 128:9248-56 (2006)). The affinity of each peptide for p300 was measured by isothermal titration calorimetry analysis (Wiseman et al., “Rapid Measurement of Binding Constants and Heats of Binding Using a New Titration calorimeter,” Anal. Biochem. 179:131-7 (1989); Freire et al., “Isothermal Titration calorimetry,” Anal. Chem. 62:A950-A959 (1990); Chervenak & Toone, “Calorimetric Analysis of the Binding of Lectins with Overlapping Carhohydrate-binding Ligand Specificities,” Biochemistry 34:5685-95 (1995); Aki et al., “Competitive Binding of Drugs to the Multiple Binding Sites on Human Serum Albumin. A calorimetric Study,” J Thermal Anal. calorim. […] The ability of each peptide to downregulate VEGF transcription in cell culture was evaluated by […] quantitative RT-PCR, as described above. The cytotoxicity of each peptide was determined by monitoring cellular growth and population doubling in the presence of individual peptides at 1μM concentration.
# [2] = system: VEGF transcription in HeLa cells; assay: VEGF gene expression by real-time qRT-PCR; format: cell-based; conditions: FIG. 7
# Text: Real-time qRT-PCR was used to determine the effect of HBS helices on the level of expression of VEGF and GLUT1 genes in HeLa and MCF-7 cells, both under normoxic and hypoxic conditions. For VEGF analysis, the forward primer 5′AGGCCAGCACATAGGAGAGA-3′ (SEQ ID NO: 105) and reverse primer 5′TTTCCCTTTCCTCGAACTGA-3′ (SEQ ID NO:106) were used to amplify a 104-bp fragment from the […] of the gene. For GLUT1 (SLC2A1) analysis, the following sequences were utilized to yield a product of 179 bp: forward sequence 5′-TAGAAACATGGTTTTGAAATGC-3′ (SEQ ID NO:107), reverse sequence 5′-GGTAACAGGGATCAAACAGATT-3′ (SEQ ID NO:108). The levels of expression of β-glucuronidase were used as endogenous controls, since they remain unchanged under experimental conditions. The forward primer 5′-CTCATTTGGAATTTTGCCGATT-3′ (SEQ ID NO:109) and reverse primer 5′-CCGAGTGAAGATCCCCTTTTTA-3′ (SEQ ID NO:110) were used for this gene. Temperature cycling and detection of the SYBR green emission were performed with an ABI 7300 real-time PCR instrument. Data were analyzed with ABI Sequence Detection System, version 1.2. Statistical analysis was performed with the data from six independent experiments. The experiment was performed with Applied Biosystems SYBR Green RT-PCR master mix.
# [3] = system: HIF-1α C-TAD and p300/CBP; conditions: literature (Kung et al. 2004); cited from earlier work
# experimental animals = conditions: cited from earlier work
# p300 [4] = target: p300 (Homo sapiens, UniProt Q09472); assay: Affinity for p300 by isothermal titration calorimetry; format: binding; conditions: isothermal titration calorimetry, p300; read-out: Kd (ITC)
# Text: Helix αA of HIF-1α C-TAD, shown in FIG. 1A and FIG. 1C, is critical for the interaction between the CH1 domain and HIF-1α, because mutation of its residues or hydroxylation of Asn803 is known to disrupt this complex and inhibit HIF-1α mediated transcription (Freedman et al., “Structural Basis for Recruitment of CBP/p300 by Hypoxia-inducible Factor-1α,” Proc. Nat'l Acad. Sci. USA 99:5367-72 (2002); Dames et al., “Structural Basis for Hif-1α/CBP Recognition in the Cellular Hypoxic Response,” Proc. Nat'1 Acad. Sci. USA 99:5271-6 (2002). Development of HBS helices as potential inhibitors of VEGF transcription was begun by mimicking the aA helix region of HIF-1. This helix consists of eight residues, […] (SEQ ID NO: 111), and features three residues, Asp-Cys-Glu, critical for binding with p300/CBP. Several linear peptides and their HBS α-helix analogs were designed to gauge the potential of these molecules to inhibit VEGF transcription in cell culture. Each unconstrained peptide and HBS helix was synthesized using the procedures described in (Dimartino et al., “Solid-phase Synthesis of Hydrogen-bond Surrogate-derived α-Helices,” Org. Lett. 7:2389-92 (2005); Chapman & Arora, “Optimized Synthesis of Hydrogen-bond Surrogate Helices: Surprising Effects of Microwave Heating on the Activity of Grubbs Catalysts,” Org. Lett. 8:5825-8 (2006)). The percent helicity of each peptide was determined using circular dichroism spectroscopy in 10 mM phosphate buffered saline as described in (Wang et al., “Evaluation of Biologically Relevant Short α-Helices Stabilized by a Main-chain Hydrogen-bond Surrogate,” J. Am. Chem. Soc. 128:9248-56 (2006)). The affinity of each peptide for p300 was measured by isothermal titration calorimetry analysis (Wiseman et al., “Rapid Measurement of Binding Constants and Heats of Binding Using a New Titration calorimeter,” Anal. Biochem. 179:131-7 (1989); Freire et al., “Isothermal Titration calorimetry,” Anal. Chem. 62:A950-A959 (1990); Chervenak & Toone, “Calorimetric Analysis of the Binding of Lectins with Overlapping Carhohydrate-binding Ligand Specificities,” Biochemistry 34:5685-95 (1995); Aki et al., “Competitive Binding of Drugs to the Multiple Binding Sites on Human Serum Albumin. A calorimetric Study,” J Thermal Anal. calorim. 57:36170 (1999); Graziano et al., “Linkage of Proton Binding to the Thermal Unfolding of Sso7d from the Hyperthermophilic Archaebacterium Sulfolobus solfataricus,” Int'l J. Biol. Macromolecules 26:45-53 (1999); Pluschke & Mutz, “Use of Isothermal Titration calorimetry in the Development of Molecularly Defined Vaccines,” J Thermal Anal. calorim. 57:377-88 (1999); Corbell et al., “A Comparison of Biological and calorimetric Analyses of Multivalent Glycodendrimer Ligands for Concanavalin A,” Tetrahedron-Asymmetry 11:95-111 (2000)). The ability of each peptide to downregulate VEGF transcription in cell culture was evaluated by […] quantitative RT-PCR, as described above. The cytotoxicity of each peptide was determined by monitoring cellular growth and population doubling in the presence of individual peptides at 1μM concentration.
# p300 [5] = target: T1, p300 (UniProt Q09472 323-423, limits assumed); assay: isothermal titration calorimetry
# T1 construct: also called p300/CBP
# T1 sequence (Q09472 323-423 limits assumed): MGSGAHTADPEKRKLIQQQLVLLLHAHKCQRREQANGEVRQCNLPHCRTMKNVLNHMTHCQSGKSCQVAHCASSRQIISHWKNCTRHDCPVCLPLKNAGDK
# p300 (Homo sapiens, UniProt Q09472), sequence (Q09472 whole entry, the tested form may be a part): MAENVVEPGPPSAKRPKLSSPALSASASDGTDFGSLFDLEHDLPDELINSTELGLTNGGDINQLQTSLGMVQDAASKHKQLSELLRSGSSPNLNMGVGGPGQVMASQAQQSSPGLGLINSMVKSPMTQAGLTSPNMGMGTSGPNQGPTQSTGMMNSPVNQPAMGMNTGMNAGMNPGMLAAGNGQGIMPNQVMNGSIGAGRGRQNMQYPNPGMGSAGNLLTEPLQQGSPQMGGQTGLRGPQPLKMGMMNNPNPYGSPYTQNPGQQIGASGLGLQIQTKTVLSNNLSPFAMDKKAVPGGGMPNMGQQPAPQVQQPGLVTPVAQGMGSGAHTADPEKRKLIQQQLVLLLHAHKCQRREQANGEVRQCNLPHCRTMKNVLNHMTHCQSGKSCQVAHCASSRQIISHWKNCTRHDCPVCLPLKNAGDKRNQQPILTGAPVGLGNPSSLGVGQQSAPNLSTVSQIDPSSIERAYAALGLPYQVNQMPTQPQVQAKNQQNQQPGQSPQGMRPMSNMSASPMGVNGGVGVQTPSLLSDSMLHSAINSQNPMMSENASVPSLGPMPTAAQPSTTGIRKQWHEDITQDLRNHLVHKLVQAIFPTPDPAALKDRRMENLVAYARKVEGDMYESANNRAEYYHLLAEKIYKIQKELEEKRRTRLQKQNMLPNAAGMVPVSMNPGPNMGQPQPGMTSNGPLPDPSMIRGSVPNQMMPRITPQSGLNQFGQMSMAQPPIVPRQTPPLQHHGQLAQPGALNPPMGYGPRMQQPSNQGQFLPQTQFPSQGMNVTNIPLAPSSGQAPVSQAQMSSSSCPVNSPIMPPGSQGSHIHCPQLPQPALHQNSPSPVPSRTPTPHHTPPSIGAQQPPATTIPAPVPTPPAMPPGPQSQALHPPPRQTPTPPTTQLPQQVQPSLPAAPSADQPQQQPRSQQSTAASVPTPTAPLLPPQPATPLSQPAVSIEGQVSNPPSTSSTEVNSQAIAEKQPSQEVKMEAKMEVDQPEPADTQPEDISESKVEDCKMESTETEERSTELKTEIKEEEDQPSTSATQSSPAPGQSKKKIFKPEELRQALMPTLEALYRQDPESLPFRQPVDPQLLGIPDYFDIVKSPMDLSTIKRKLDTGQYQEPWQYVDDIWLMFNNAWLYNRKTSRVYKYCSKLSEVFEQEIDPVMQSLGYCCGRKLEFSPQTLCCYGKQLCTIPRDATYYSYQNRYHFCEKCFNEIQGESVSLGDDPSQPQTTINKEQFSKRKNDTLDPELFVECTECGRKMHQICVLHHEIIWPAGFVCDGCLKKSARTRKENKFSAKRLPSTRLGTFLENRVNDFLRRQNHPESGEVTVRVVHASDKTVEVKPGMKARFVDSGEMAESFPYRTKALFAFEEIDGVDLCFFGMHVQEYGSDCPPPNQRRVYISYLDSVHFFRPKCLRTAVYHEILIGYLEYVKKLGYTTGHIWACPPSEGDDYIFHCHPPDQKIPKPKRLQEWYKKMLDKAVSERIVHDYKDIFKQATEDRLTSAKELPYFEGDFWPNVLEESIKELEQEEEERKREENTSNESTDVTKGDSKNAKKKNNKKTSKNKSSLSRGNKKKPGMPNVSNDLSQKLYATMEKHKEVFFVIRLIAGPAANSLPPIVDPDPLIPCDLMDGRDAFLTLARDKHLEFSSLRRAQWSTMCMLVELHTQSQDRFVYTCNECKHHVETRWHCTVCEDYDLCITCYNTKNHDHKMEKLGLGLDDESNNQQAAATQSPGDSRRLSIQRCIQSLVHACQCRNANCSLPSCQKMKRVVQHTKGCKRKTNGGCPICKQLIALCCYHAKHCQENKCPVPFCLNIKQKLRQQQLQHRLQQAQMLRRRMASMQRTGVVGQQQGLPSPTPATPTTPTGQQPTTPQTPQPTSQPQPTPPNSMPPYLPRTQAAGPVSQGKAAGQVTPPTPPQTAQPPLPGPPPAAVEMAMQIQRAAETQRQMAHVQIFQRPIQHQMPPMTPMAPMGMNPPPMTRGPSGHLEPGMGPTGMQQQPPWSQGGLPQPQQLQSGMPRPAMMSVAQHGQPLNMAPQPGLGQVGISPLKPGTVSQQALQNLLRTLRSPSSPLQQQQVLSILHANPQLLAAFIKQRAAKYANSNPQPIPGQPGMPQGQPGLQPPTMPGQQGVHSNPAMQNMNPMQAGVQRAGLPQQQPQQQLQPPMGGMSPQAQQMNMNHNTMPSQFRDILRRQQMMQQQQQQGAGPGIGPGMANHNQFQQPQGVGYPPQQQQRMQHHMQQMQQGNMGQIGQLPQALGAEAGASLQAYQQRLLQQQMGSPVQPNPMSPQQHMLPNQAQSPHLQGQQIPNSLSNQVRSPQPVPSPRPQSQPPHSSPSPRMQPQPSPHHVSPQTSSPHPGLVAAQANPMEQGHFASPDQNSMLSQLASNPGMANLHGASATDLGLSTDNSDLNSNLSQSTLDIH
molecule,measurement,setting,value
CC(=O)NCC(=O)N[C@H](C(=O)N[C@@H](C)C(=O)N[C@@H](C)C(=O)N[C@@H](CC(=O)O)C(=O)N[C@@H](CS)C(=O)N[C@@H](CCC(=O)O)C(=O)N[C@@H](Cc1ccc(O)cc1)C(=O)N[C@@H](CC(N)=O)C(=O)N[C@@H](C)C(=O)N[C@@H](CCCNC(=N)N)C(N)=O)[C@@H](C)O [Compound 25] (Ac-GTAADCEYNAR-NH2),helicity,circular dichroism,15%
same,% Transcription inhibition in cell culture (Luc & RT-PCR),"MDA-MB-231-HRE-Luc cells; luciferase assay and qRT-PCR, 1 μM peptide",8 ± 3%
same,Helical content (in words),[1],appears to be unstructured
same,% Helicity,[1]; 10 mM phosphate buffered saline,15%
same,Inhibition of VEGF transcription in HeLa cells (in words),[2],negligible effect
"CN1C(=O)[C@]2(Cc3cn([C@]45C[C@@]67SS[C@@](CO)(C(=O)N6[C@H]4Nc4ccccc45)N(C)C7=O)c4ccccc34)SS[C@@]1(CO)C(=O)N2C [Compound 26, chetomin, reference compound]",Inhibition of interaction between HIF-1α C-TAD and p300/CBP,[3],inhibit the interaction between HIF-1α C-TAD and p300/CBP
same,% Transcription inhibition in cell culture,"MDA-MB-231-HRE-Luc cells; 200 nM chetomin, qRT-PCR or luciferase, method not given",50 ± 5%
same,Inhibition of VEGF transcription in cell culture (in words),MDA-MB-231-HRE-Luc cells; cell culture,more potent inhibitor of VEGF transcription than HBS helix 22
same,Side effects in experimental animals,experimental animals,"induced coagulative necrosis, anemia, and leukocytosis"
same,Kd,p300 [4],120 nM
"CN1C(=O)[C@@]23C[C@]4([C@]56C[C@@]78SS[C@@](CO)(C(=O)N7[C@H]5Nc5ccccc56)N(C)C8=O)c5ccccc5N[C@@H]4N2C(=O)[C@]1(CO)SS3 [chaetocin 1, chaetocin]",Side effects in experimental animals,experimental animals,"induced coagulative necrosis, anemia, and leukocytosis"
B1,Kd,p300 [5],1350 nM
B2,Kd,p300 [5],1220 nM
B3,Kd,p300 [5],825 nM
